Reference: patent US11707511B2, “Vaccine compositions and methods of using the same” (The Board of Supervisors of Louisiana State University and …, priority 2017, dated 2023)
Entries after “also recorded” stand apart in the source; their conditions may differ.

How the values were obtained:
[1] = Induction of specific anti-peptide antibody responses in immunized mice; assay type: in vivo; conditions: BALB/c mice; peptide-pulsed DC; data not shown
From the text: (§1) To perform rapid throughput evaluation of peptide vaccine candidates, immunizations were done by use of the similar antigen-pulsed DC based vaccine strategy with modification by totally removing CFA from vaccine formula. Fba peptide was used as positive control.
The double chimeric peptide conjugate vaccines have been tested for their abilities to induce specific anti-peptide antibodies and protective immunity against the disease caused by C. albicans. […] The enhancement in vaccine efficacy was evidenced by both increased survival and reduced or non-detectable fungal burden (colony forming units, CFUs) in kidneys of animals.

[2] = test system: C. glabrata CBS138 (ATCC 2001); assay: Peptide-vaccinated, cyclophosphamide-immunosuppressed mice challenged with C. glabrata; assay type: in vivo; conditions: FIG. 4; 1×10^7 cells/mouse
Protocol: (§2) Active Immunizations with peptide pulsed dendritic cells. […] It allows us to perform rapid throughput evaluation of candidate short peptides. When protective double universal peptide conjugate(s) become identified by this study, immunization approaches suitable for human use will be applied in further studies. All active vaccinations were conducted as previously described (6,7,9). DCs were pulsed in vitro with universal peptide as described before with minor modification by totally removing CFA for last booster (6). Briefly, DCs in culture were pulsed with the peptide antigen (1 μM) on day 6. On day 7, PGE2 (10^-7M) was added along with LPS (2 μg/ml, Sigma) for 24 h to induce DC maturation. On day 9, antigen-pulsed DCs were washed extensively and […] in 200 μl DPBS were given by intraperitoneal (i.p.) route as the priming dose to mice. The mice were boosted i.p. at day 14 and day 28 with fresh antigen-pulsed DCs without adjuvant.
Peptide vaccinated mice were also challenged with C. glabrata, which has emerged as the second most common cause of invasive candidiasis in the US. Since C. glabrata is not lethal for wild-type mice, immunosuppression in vaccinated mice were induced by cyclophosphamide (50 mg/kg) treatment for two weeks, and then mice were challenged with live C. glabrata cells [CBS138 (ATCC 2001), 1×10^7 cells/mouse]. […] CFU experiments will be performed and completed. […]

[3] = test system: C. tropicalis (ATCC 20336); assay: Peptide-vaccinated mice challenged with lethal dose of C. tropicalis; assay type: in vivo; conditions: for survival: FIG. 3A, i.v. challenge 1×10^6/mouse, up to 80 days; for live fungal cells (CFU) in kidneys as compared to controls: FIG. 3B, p<0.001
Protocol: as §2
Peptide-vaccinated mice were challenged with lethal dose of live C. tropicalis cells (ATCC 20336; i.v. challenge dose: 1×10^6/mouse).

C. albicans = assay: Active immunization with peptide-pulsed dendritic cells, disseminated candidiasis caused by C. albicans in mice; assay type: in vivo, Candida albicans; conditions: for protection against disseminated candidiasis caused by C. albicans: FIG. 2, antigen-pulsed DC vaccine without CFA; for CFUs in kidneys as compared to controls: FIG. 2 B and D
Protocol: as §2
Table 2 lists universal peptide vaccines that induced protection against disseminated candidiasis caused by C. albicans in mice. The universal peptide vaccines listed in Table 1 are expressed at high homology by all analyzed medically important Candida species in addition to C. albicans (see details at Table 2). By dendritic cell (DC) based immunization approach as described herein, each of the universal peptide vaccines was able to protect mice against disseminated candidiasis caused by C. albicans, with the survival rate 80-100% up to 80-120 days post challenge.
as §1

C. albicans 3153A = assay: Passive transfer of mAbs or mAb cocktails i.p. before lethal i.v. challenge, mouse model of human disseminated candidiasis; assay type: in vivo, Candida albicans; conditions: Table 14
Protocol: Passive transfer of MAbs by intraperitoneal (i.p.) route. The preventive effect of peptide-specific mAbs listed in Table 3 and Table 4 in naïve mice was examined by passive transfer experiments. […] For testing, mice received 0.5 ml of each mAb or 1 ml of two mAbs in combination (0.5 ml of each) intraperitoneally. […] The negative control materials tested in mice were single mAb or DPBS. Control mice received 0.5 ml of the DPBS diluents or single mAb treatment. For each condition, 6- to 8-week-old female BALB/c mice (NCI) were given 0.5 ml of test mAb, or 1 ml two mAb cocktails or control materials intraperitoneally, followed 4 h later by 0.1 ml intravenously of defined lethal dose of yeast cells per milliliter of DPBS. Mice were divided into groups with five mice each and three independent experiments were carried out. In some experiments, mice were given the same dose of mAbs or control materials on every other day post-challenge for two weeks, as compared to the protective efficacy of mAb in combinations. All mice were sacrificed on day 50. For animal groups that were challenged non-albicans candida species, determined optimal challenge doses were applied for each candida strain.
The hybridoma clones that produce the universal peptide specific mAbs listed above were generated from mice vaccinated with peptide-pulsed dendritic cell (DC) preparation as described previously (6). The isotype of mAb was determined with a Mouse Monoclonal Antibody Isotyping Kit (Pierce, USA). […] In detail, BALB/c mice were given an i.p dose of each mAb four hours before hematogenous challenged with a lethal dose of C. albicans3153A cells. […] Importantly, passive protection was prevented by removal of the mAbs by absorption with Candida cells before transfer, which provided strong additional evidence for the protection being due to the mAb.
The three cell wall proteins were selected because of expression during human candidiasis and cell wall association, and included fructose-bisphosphate aldolase (Fba); methyltetrahydropteroyltriglutamate-homocysteine methyltransferase (Met6); hyphal wall protein-1 (Hwp1). The hybridoma clones listed at Table 5, which produce the peptide specific mAbs, were generated from mice vaccinated with peptide-pulsed dendritic cell (DC) preparation as described previously (6). The isotype of mAb was determined with a Mouse Monoclonal Antibody Isotyping Kit (Pierce, USA). […] Importantly, passive protection was prevented by removal of the mAbs by absorption with Candida cells before transfer, which provided strong additional evidence for the protection being due to the mAb).
The preventive effect of each universal peptide-specific mAb was examined by passive transfer experiments. […] For testing, 5 mice of each tested group received 0.5 ml of each mAb intraperitoneally. The negative control materials tested in mice were mAbs absorbed with C. albicans yeast cells (3153A) and DPBS. Control mice received 0.5 ml of the DPBS diluents or adsorbed mAb solution. For each condition, 6- to 8-week-old female BALB/c mice (NCI) were given 0.5 ml of test mAb, or control materials intraperitoneally, followed 4 h later by 0.1 ml intravenously of a suspension containing lethal dose of Candida cells per milliliter of DPBS. Mice were divided into groups with five mice each and three independent experiments were carried out. We have developed neutropenic murine models of disseminated infection by C. glabrata, C. tropicalis and C. parapsilosis. To induce neutropenia, naïve mice received a 200 mg/kg dose of cyclophosphamide (CY) by i.p. on day −3. Prolonged neutropenia were maintained for 30-50 days by giving each animal a 150 mg/kg dose of CY by i.p. every 10 days after infection.

C. auris = assay: Passive transfer of mAbs in cyclophosphamide-immunosuppressed B6.129X1Elane mice, disseminated infection by C. auris; assay type: in vivo, Candida auris; conditions: 2×108 C. auris i.v.
Protocol: An immunocompromised murine model of disseminated infection by C. auris was developed. To induce immunosuppression, Jackson B6.129X1Elane mice received a 200 mg/kg dose of cyclophosphamide (CY) by i.p. on day −3. Prolonged immunosuppression was maintained for 30 days by giving each animal a 200 mg/kg dose of CY by i.p. every 10 days after infection. On day 0, mice of different experimental groups were intravenously infected with 2×10^8 viable C. auris yeast cells.
The preventive effect of peptide-specific mAbs, for example 7H6A2 and 1D4H5, and combinations thereof, for example 7H6A2+1D4H5, was examined by passive transfer experiments. Each mAb was appropriately diluted in DPBS to give a 40,000-100,000 ELISA titer against each corresponding specific peptide coated on the plate. For testing, mice received 0.5 ml of each mAb or 1 ml of two mAbs in combination (0.5 ml of each) intraperitoneally. Control mice received 0.5 ml of the DPBS diluents.
Protective mAbs protect immunocompromised mice against disseminated infection by Candida auris: The possibility of using passive mAb immunotherapy in immunocompromised mice against disseminated candidiasis by C. auris. The protective effect of mAb 7H6A2, 1D4H5 or these two mAbs in combination against the disease in immunocompromised mice was examined by passive transfer experiments (FIG. 14). Mice received either mAb 7H6A2 or 1D4H5 or the two mAbs in combination had reduced CFUs in kidneys (FIG. 14A) and in brains (FIG. 14B) as compared with control mice.

C. auris AR-0386 = assay: Passive transfer of mAbs or two mAbs in combination in A/J mouse model of invasive C. auris infection; assay type: in vivo, Candida auris; conditions: Table 19; A/J strain mice
Protocol: A. Complement protein C5-defecient A/J mice were treated with one of the five mAb or with DPBS as a vehicle control. The following day, mice were challenged with 1×10^8 C. auris cells/100 ul DPBS dose per mouse. […] B. Fungal burdens in the kidneys (top), heard (center), and brain (bottom).
Identified protective mAbs were obtained by use of standard hybridoma technique and purified by use of protein A/G. A/J mice were given an i.p. dose of either single mAb or two mAbs in combination 24 hours before hematogensous challenge with a lethal dose (2×108) of C. auris AR-0386 live cells. Mice received either 9G2F5 alone or 6H1G8 alone or 9F2G5 and 3H7E3 in combination had 40% survival rate respectively, with prolonged survival as compared to control animals that received DPBS buffer control.
Evaluation and validation of a panel of peptide-specific monoclonal antibodies (mAbs) as a passive immunization strategy protect against invasive C. auris infection in established A/J mouse model of human disease.
The monoclonal antibodies used in this experiment were: • 6H1G8 (IgG2b), α-Hwp1 (Hyphal wall protein) • 3E2G2 (IgG2b), α-Fba (Fructose bisphosphate aldolase) • 10E7E2 (IgG1), α-GPV-P3 (General peptide vaccine 3 from Phosphoglycerate kinase) • 9F2G5 (IgG2a), α-Pgk1 (Phosphoglycerate kinase) • 3H7E3 (IgG1), α-Met6 (Methyltetrahydropteroyltriglutamate)

Molecule	specific antibody responses [1]	protection against disseminated candidiasis caused by C. glabrata [2]	survival [3] [%]	live fungal cells (CFU) in kidneys as compared to controls [3]	protection against disseminated candidiasis caused by C. albicans (C. albicans)	CFUs in kidneys as compared to controls (C. albicans)	Protection of adsorbed mAb (C. albicans 3153A; mAb removed by absorption with Candida cells before transfer)	Protection (C. albicans 3153A; single mAb, C. albicans)	Protection (grade word) (C. albicans 3153A; single mAb, C. albicans)	CFUs in kidneys as compared with control mice (C. auris; FIG. 14A)	CFUs in brains as compared with control mice (C. auris; FIG. 14B)	Protection against C. auris (C. auris AR-0386)	Protection against C. auris (grade word) (C. auris AR-0386)
FbaU1: putative universal Fba peptide; Table 17 equates it with Fba3 (SEQ ID NO: 36) but tested as a separate peptide (FAIPAINVTSSSTVVAALE)	able to induce specific antibody responses	high degree protection	100	significantly reduced live fungal cells	good protective responses; also recorded: high degree protection	reduced or non-detectable CFUs	–	–	–	–	–	–	–
YDQVLDLSLLFNAIP [Met6-2]	able to induce specific antibody responses	high degree protection	80	significantly reduced live fungal cells	good protective responses; also recorded: high degree protection	reduced or non-detectable CFUs	–	–	–	–	–	–	–
7H6A2: IgG2b mAb of hybridoma 7H6A2, specific for Met6 peptide (antibody) heavy: QIQLVQSGPELKKPGETVKISCKASGYTFTDFSMHWVKQAPGKGLKWMGWINTETVEPTYADDFKGRFAFSLETSASTAYLQINNLKNEDTATYFCSRVSYDGYYGDFAMDYWSQGTSVTVSSAKTTAPSVYPLAPVCGDTTGSSVTLGCLVKGYFPEPVTLTWNSGSLSSGVHTFPAVLQSDLYTLSSSVTVTSSTWPSQSITCNVAHPASSTKVDKKIEPRGPTIKPCPPCKCPAPNLLGGPSVFIFPPKIKDVLMISLSPIVTCVVVDVSEDDPDVQISWFVNNVEVHTAQTQTHREDYNSTLRVVSALPIQHQDWMSGKEFKCKVNNKDLPAPIERTISKPKGSVRAPQVYVLPPPEEEMTKKQVTLTCMVTDFMPEDIYVEWTNNGKTELNYKNTEPVLDSDGSYFMYSKLRVEKKNWVERNSYSCSVVHEGLHNHHTTKSFSRTPGK light: DIQMTQTTSSLSASLGDRVTISCRASQDISNYLNWYQQKPDGTVKLLIYYTSRLHSGVPSRFSGSGSGTDYSLTISNLEQEDIATYFCQQGNTLPWTFGGGTKLEIKRADAAPTVSIFPPSSEQLTSGGASVVCFLNNFYPKDINVKWKIDGSERQNGVLNSWTDQDSKDSTYSMSSTLTLTKDEYERHNSYTCEATHKTSTSPIVKSFNRNEC	–	–	–	–	–	–	None	(80-90%)	High	reduced CFUs	reduced CFUs; also recorded: no CFU detected	80-100%	High
